Experimental data: the supplement of paper PMC11061612

How the values were obtained:
Test in all cases: Bliss excess, mean over the matrix (fraction); higher = more synergy
IST-MES1 (Mesothelioma) = system: IST-MES1 (Mesothelioma)
Procedure, shortened: (§1)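 Cell lines grown in DMEM/F12 or RPMI with 10% FBS were plated in 1536-well plates and held 24 hours at 37°C, 5% CO2 before 72 hours of exposure to two-drug dose matrices, with DMSO typically at 0.2%. CellTiter-Glo 2.0 luminescence gave viability, which was converted to inhibition. Vehicle wells were set to 0 and blank wells to 1. Combination Emax is the second-highest inhibition in the matrix, and Bliss excess is the observed combination effect minus the expected EA + EB − EA·EB, where EA and EB are the single-agent effects.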

[1] = system: L-1236 (Hodgkin's Lymphoma)
Procedure, shortened: as §1

[2] = system: SU-DHL-10 (B-Cell Non-Hodgkin's Lymphoma)
Procedure, shortened: as §1

[3] = system: PC-3_[JPC-3] (Lung Adenocarcinoma)
Procedure, shortened: as §1

SF268 (Low Grade Glioma) = system: SF268 (Low Grade Glioma)
Procedure, shortened: as §1

[4] = system: SK-PN-DW (Other Solid Carcinomas)
Procedure, shortened: as §1

[5] = system: HSC-39 (Gastric Carcinoma)
Procedure, shortened: as §1

GB-1 (Glioblastoma) = system: GB-1 (Glioblastoma)
Procedure, shortened: as §1

WM793B (Melanoma) = system: WM793B (Melanoma)
Procedure, shortened: as §1

A2058 (Melanoma) = system: A2058 (Melanoma)
Procedure, shortened: as §1

[6] = system: NCI-H23 (Lung Adenocarcinoma)
Procedure, shortened: as §1

SF539 (Glioblastoma) = system: SF539 (Glioblastoma)
Procedure, shortened: as §1

[7] = system: RERF-GC-1B (Gastric Carcinoma)
Procedure, shortened: as §1

[8] = system: RCM-1 (Colorectal Carcinoma)
Procedure, shortened: as §1

[9] = system: OVMIU (Ovarian Carcinoma)
Procedure, shortened: as §1

[10] = system: 23132-87 (Gastric Carcinoma)
Procedure, shortened: as §1

WM278 (Melanoma) = system: WM278 (Melanoma)
Procedure, shortened: as §1

[11] = system: LXF-289 (Lung Adenocarcinoma)
Procedure, shortened: as §1

[12] = system: HCT-15 (Colorectal Carcinoma)
Procedure, shortened: as §1

[13] = system: NCI-H2342 (Lung Adenocarcinoma)
Procedure, shortened: as §1

| Structure (SMILES) | Bliss excess (IST-MES1 (Mesothelioma)) | Bliss excess [1] | Bliss excess [2] | Bliss excess [3] | Bliss excess (SF268 (Low Grade Glioma)) | Bliss excess [4] | Bliss excess [5] | Bliss excess (GB-1 (Glioblastoma)) | Bliss excess (WM793B (Melanoma)) | Bliss excess (A2058 (Melanoma)) | Bliss excess [6] | Bliss excess (SF539 (Glioblastoma)) | Bliss excess [7] | Bliss excess [8] | Bliss excess [9] | Bliss excess [10] | Bliss excess (WM278 (Melanoma)) | Bliss excess [11] | Bliss excess [12] | Bliss excess [13] |
| --- | --- | --- | --- | --- | --- | --- | --- | --- | --- | --- | --- | --- | --- | --- | --- | --- | --- | --- | --- | --- |
| NC1(C(=O)N[C@@H](CCO)c2ccc(Cl)cc2)CCN(c2ncnc3[nH]ccc23)CC1 [Capivasertib] + CC(C)n1c(=O)n(C)c2cnc3cc(F)c(-c4ccc(OCCCN5CCCCC5)nc4)cc3c21 [AZD1390] (first compound max 10 µM, 7x7, partner max 0.3 µM) | -0.0553 | 0.0156 | 0.0402 | -0.0982 | -0.0398 | -0.0892 | 0.0112 | -0.0399 | -0.0826 | -0.0336 | -0.0484 | -0.0528 | -0.0323 | -0.0274 | -0.0592 | -0.055 | -0.0671 | -0.0825 | -0.036 | -0.0212 |
| NC1(C(=O)N[C@@H](CCO)c2ccc(Cl)cc2)CCN(c2ncnc3[nH]ccc23)CC1 [Capivasertib] + Cn1cnc2c(F)c(Nc3ccc(Br)cc3Cl)c(C(=O)NOCCO)cc21 [Selumetinib] (first compound max 10 µM, 7x7, partner max 10 µM) | 0.0018 | 0.0433 | 0.0269 | 0.0268 | -0.0651 | 0.032 | 0.2 | 0.0042 | 0.0402 | 0.108 | 0.0101 | -0.0225 | 0.0077 | 0.019 | -0.0255 | 0.0687 | 0.0221 | 0.0075 | 0.0387 | 0.0891 |
| Cc1cc2ncnn2cc1Nc1ncc2c(n1)n(C1CCOCC1)c(=O)n2C [AZD7648] + C=CCn1c(=O)c2cnc(Nc3ccc(N4CCN(C)CC4)cc3)nc2n1-c1cccc(C(C)(C)O)n1 [AZD1775] (first compound max 10 µM, partner max 1 µM) | -0.002 | -0.0686 | -0.0191 | 0.0063 | 0.0296 | -0.145 | -0.0357 | 0.0089 | -0.0395 | 0.0194 | -0.0363 | 0.0049 | -0.0936 | 0.0248 | 0.0747 | -0.0401 | -0.027 | -0.0396 | -0.055 | -0.0023 |
| COc1nnc2ccc(N3CCC(c4ccc(OCCN5CCN(C)C(=O)[C@H]5C)cc4)CC3)nn12 [AZD5153] + CC1(C)CCC(CN2CCN(c3ccc(C(=O)NS(=O)(=O)c4ccc(NCC5CCOCC5)c([N+](=O)[O-])c4)c(Oc4cnc5[nH]ccc5c4)c3)CC2)=C(c2ccc(Cl)cc2)C1 [Venetoclax] (first compound max 1 µM, 7x7, partner max 1 µM) | -0.0237 | 0.0177 | -0.0221 | -0.111 | -0.128 | -0.0998 | 0.0439 | -0.062 | -0.0525 | -0.0876 | -0.0473 | -0.0797 | -0.0442 | -0.0191 | -0.0254 | -0.0697 | -0.0188 | -0.009 | -0.0242 | -0.0384 |
| Cc1nc(Nc2ncc(C(=O)Nc3c(C)cccc3Cl)s2)cc(N2CCN(CCO)CC2)n1 [Dasatinib] + CC(=O)Nc1cccc(-n2c(=O)n(C3CC3)c(=O)c3c(Nc4ccc(I)cc4F)n(C)c(=O)c(C)c32)c1 [Trametinib] (first compound max 2 µM, 7x7, partner max 1 µM) | 0.0328 | 0.008 | 0.0745 | -0.0708 | -0.073 | -0.0292 | -0.0706 | 0.121 | -0.0015 | 0.005 | 0.0225 | -0.0177 | 0.0784 | 0.018 | -0.0298 | -0.045 | 0.162 | -0.0439 | 0.0847 | -0.0578 |
| CN(CCO)CC[C@H](CSc1ccccc1)Nc1ccc(S(=O)(=O)NC(=O)c2ccc(N3CCC([C@@H](O)c4ccccc4-c4ccc(Cl)cc4)CC3)cc2)cc1S(=O)(=O)C(F)(F)F [AZD4320] + C[C@@H](Nc1cc(F)cc(F)c1)c1cc(C(=O)N(C)C)cc2c(=O)cc(N3CCOCC3)oc12 [AZD8186] (first compound max 1 µM, 7x7, partner max 3 µM) | 0.0552 | 0.0082 | 0.0092 | -0.0176 | 0.014 | -0.0087 | 0.0229 | -0.0289 | 0.0434 | 0.0157 | 0.08 | 0.0425 | 0.0112 | -0.0416 | -0.0637 | -0.031 | 0.035 | -0.0351 | 0.0162 | -0.0065 |
| CC(=O)Nc1cccc(-n2c(=O)n(C3CC3)c(=O)c3c(Nc4ccc(I)cc4F)n(C)c(=O)c(C)c32)c1 [Trametinib] + Cc1nc(-c2cn3c(n2)-c2ccc(-c4cnn(C(C)(C)C(N)=O)c4)cc2OCC3)n(C(C)C)n1 [Taselisib] (first compound max 1 µM, 7x7, partner max 10 µM) | 0.0469 | 0.0881 | 0.0528 | 0.166 | 0.0152 | -0.0286 | 0.184 | 0.159 | 0.0203 | 0.104 | 0.189 | 0.177 | 0.0909 | 0.0117 | 0.0474 | 0.0654 | 0.13 | 0.164 | 0.139 | 0.0446 |
| CCN(CCO)CCCOc1ccc2c(Nc3cc(CC(=O)Nc4cccc(F)c4)[nH]n3)ncnc2c1 [AZD2811] + C[C@@H]1COCCN1C2=NC(=NC(=C2)C3(CC3)[S@](=N)(=O)C)C4=C5C=CNC5=NC=C4 [AZD6738] (first compound max 1 µM, 7x7, partner max 10 µM) | -0.0613 | -0.0583 | -0.0609 | -0.0453 | -0.027 | -0.0306 | -0.0107 | -0.009 | -0.0709 | 0.0067 | -0.0308 | -0.0262 | 0.0143 | -0.0263 | -0.0446 | -0.0087 | 0.0062 | -0.0763 | -0.0592 | -0.0706 |
| Cn1cnc2c(F)c(Nc3ccc(Br)cc3Cl)c(C(=O)NOCCO)cc21 [Selumetinib] + C[C@@H]1COCCN1C2=NC(=NC(=C2)C3(CC3)[S@](=N)(=O)C)C4=C5C=CNC5=NC=C4 [AZD6738] (first compound max 10 µM, 7x7, partner max 10 µM) | -0.0374 | -0.041 | 0.0181 | -0.0671 | -0.0382 | -0.0011 | -0.0391 | -0.0347 | -0.0447 | 0.059 | 0.0385 | 0.0586 | 0.152 | -0.132 | -0.0084 | -0.0627 | 0.0642 | -0.0165 | -0.0057 | -0.0577 |
| CC1(C)CCC(CN2CCN(c3ccc(C(=O)NS(=O)(=O)c4ccc(NCC5CCOCC5)c([N+](=O)[O-])c4)c(Oc4cnc5[nH]ccc5c4)c3)CC2)=C(c2ccc(Cl)cc2)C1 [Venetoclax] + C=CCn1c(=O)c2cnc(Nc3ccc(N4CCN(C)CC4)cc3)nc2n1-c1cccc(C(C)(C)O)n1 [AZD1775] (first compound max 1 µM, partner max 1 µM) | -0.0281 | 0.0035 | -0.018 | -0.0736 | -0.0218 | 0.0457 | 0.0776 | 0.0144 | 0.0101 | -0.0886 | -0.0533 | -0.0234 | -0.112 | 0.0294 | -0.013 | -0.0277 | -0.0413 | -0.0515 | -0.0265 | -0.0184 |
| Cc1cc2ncnn2cc1Nc1ncc2c(n1)n(C1CCOCC1)c(=O)n2C [AZD7648] + C[C@@H]1COCCN1C2=NC(=NC(=C2)C3(CC3)[S@](=N)(=O)C)C4=C5C=CNC5=NC=C4 [AZD6738] (first compound max 10 µM, 7x7, partner max 10 µM) | 0.0176 | 0.0434 | -0.0398 | 0.0627 | 0.0152 | 0.0154 | 0.0166 | -0.017 | -0.0352 | 0.024 | -0.0617 | -0.0166 | 0.0094 | 0.0223 | 0.0527 | -0.0027 | 0.0112 | 0.0315 | -0.0312 | 0.0271 |
| CC1(C)CCC(CN2CCN(c3ccc(C(=O)NS(=O)(=O)c4ccc(NCC5CCOCC5)c([N+](=O)[O-])c4)c(Oc4cnc5[nH]ccc5c4)c3)CC2)=C(c2ccc(Cl)cc2)C1 [Venetoclax] + Cn1cnc2c(F)c(Nc3ccc(Br)cc3Cl)c(C(=O)NOCCO)cc21 [Selumetinib] (first compound max 1 µM, 7x7, partner max 3 µM) | -0.0381 | -0.0319 | -0.0123 | -0.0715 | -0.0355 | -0.0308 | -0.048 | -0.0366 | -0.0191 | -0.005 | -0.0208 | 0.0003 | 0.0095 | -0.0369 | -0.0641 | -0.0507 | -0.0319 | -0.0312 | -0.0231 | -0.0628 |
| COc1cccc(OCCCN)c1-c1cc(Nc2cnc(C#N)cn2)n[nH]1 [Prexasertib] + Cc1cc2ncnn2cc1Nc1ncc2c(n1)n(C1CCOCC1)c(=O)n2C [AZD7648] (first compound max 1 µM, 7x7, partner max 10 µM) | -0.0032 | -0.046 | -0.045 | -0.0103 | 0.0078 | -0.0503 | 0.008 | 0.0387 | -0.0169 | 0.0025 | -0.026 | 0.014 | 0.0015 | -0.0166 | -0.0211 | -0.0365 | -0.009 | -0.0006 | -0.0449 | -0.0216 |
| CC1(C)CCC(CN2CCN(c3ccc(C(=O)NS(=O)(=O)c4ccc(NCC5CCOCC5)c([N+](=O)[O-])c4)c(Oc4cnc5[nH]ccc5c4)c3)CC2)=C(c2ccc(Cl)cc2)C1 [Venetoclax] + CCN(CCO)CCCOc1ccc2c(Nc3cc(CC(=O)Nc4cccc(F)c4)[nH]n3)ncnc2c1 [AZD2811] (first compound max 1 µM, 7x7, partner max 1 µM) | -0.0327 | -0.0197 | -0.0844 | -0.095 | 0.0342 | -0.0703 | 0.0077 | -0.0501 | 0.0206 | 0.0655 | -0.0051 | 0.0468 | 0.0028 | -0.0144 | -0.0851 | -0.0136 | -0.0119 | -0.0678 | 0.0051 | -0.019 |
